The record followed here is DBAASP.

Common to all, as to assay: ≥ marks a high value that may be exact or a test limit, other limits are often not marked, values filed in µg/mL are converted to µM
The test system of assay [1] is Enterococcus faecalis VR.
Assay [2] deals with Staphylococcus epidermidis KCTC 1917.
Assay [3] deals with Enterococcus faecium.
Assay [4] has as its system Staphylococcus aureus MR.
The subject of assay [5] is Enterococcus faecium VR.
Assay [6] has as its system Pseudomonas aeruginosa KCTC 1637.
Assay [7] has as its system Staphylococcus aureus KCTC 1621.
The subject of assay [8] is Salmonella typhimurium KCTC 1926.
In assay [9] the test system is Escherichia coli KCTC 1682.
Assay [10] concerns Enterococcus faecalis.
Assay [11] concerns Bacillus subtilis KCTC 3068.
Assay [12] relates to Saccharomyces cerevisiae NBRC 10217.
Assay [13] deals with Escherichia coli NBRC 14237.
Assay [14] concerns Staphylococcus aureus NBRC 12732.
Assay [15] has as its system Micrococcus luteus NBRC 12708.
Assay [16] deals with Pseudomonas aeruginosa H103.
For assay [17], the system named is Escherichia coli ESBL 63103.
In assay [18] the test system is Staphylococcus aureus C623.
Assay [19] relates to Candida albicans C627.
The subject of assay [20] is Pseudomonas aeruginosa LES400.
Assay [21] has as its system Staphylococcus aureus ATCC 25923.
In assay [22] the test system is Pseudomonas aeruginosa 213.
For assay [23], the system named is Enterococcus faecium mic80.
Assay [24] has as its system Escherichia coli ATCC 25922.
Assay [25] has as its system Pseudomonas aeruginosa ATCC 27853.
In assay [26] the test system is Escherichia coli BL21(DE3).
Assay [27] deals with Escherichia coli BL21 (DE3)-NDM-1.
In assay [28] the test system is Staphylococcus aureus.
Assay [29] concerns Candida albicans.
Assay [30] concerns Pseudomonas aeruginosa.
In assay [31] the test system is Escherichia coli.
For assay [32], the system named is Staphylococcus epidermidis.
Assay [33] deals with Candida albicans ATCC 10231.
Assay [34] deals with Klebsiella pneumoniae.
Assay [35] deals with Micrococcus luteus A270.
The subject of assay [36] is Escherichia coli SBS 363.
In assay [37] the test system is Salmonella enterica subsp. arizonae ATCC 13314.
In assay [38] the test system is Candida albicans MDM8.
Assay [39] relates to Pseudomonas aeruginosa ATCC 25619.
Assay [40] deals with Acinetobacter baumannii ATCC 19606.
Assay [41] deals with Pseudomonas aeruginosa 1125.
Assay [42] deals with Pseudomonas aeruginosa ATCC 15442.
The test system of assay [43] is Pseudomonas aeruginosa ATCC BAA-1744.
Assay [44] concerns Pseudomonas aeruginosa 1109.
In assay [45] the test system is Acinetobacter baumannii NR-9667.
Assay [46] concerns Pseudomonas aeruginosa ATCC 10145.
Assay [47] has as its system Acinetobacter baumannii ATCC BAA-1605.
Assay [48] relates to Acinetobacter baumannii ATCC BAA-747.
Assay [49] deals with Acinetobacter baumannii NR-13375.
The subject of assay [50] is Pseudomonas aeruginosa ATCC 35032.
The test system of assay [51] is Pseudomonas aeruginosa ATCC 9027.
In assay [52] the test system is Pseudomonas aeruginosa ATCC 9721.

In general, MIC refers to the smallest concentration in the dilution series that meets the test's criterion for growth inhibition. Low readings indicate greater potency, high ones weaker potency.

In brackets after ≈: the same amount, converted by molar mass.

`CC[C@H](C)[C@H](NC(=O)[C@H](CS)NC(=O)[C@H](Cc1cnc[nH]1)NC(=O)[C@H](C)NC(=O)[C@H](C)N)C(=O)N[C@H](C(=O)N[C@@H](CC(C)C)C(=O)N[C@@H](Cc1cnc[nH]1)C(=O)N[C@@H](Cc1cnc[nH]1)C(=O)N[C@@H](CC(N)=O)C(N)=O)C(C)C` [AAHCIVLHHN]: the MIC in assay [1] is 30 µM (≈ 33.4 µg/mL); in [2], 15 µM (≈ 16.7 µg/mL); in assay [3] it was 30 µM (≈ 33.4 µg/mL); in assay [4], 30 µM (≈ 33.4 µg/mL); in assay [5] it was 30 µM (≈ 33.4 µg/mL); in assay [6] it was 15 µM (≈ 16.7 µg/mL). The MIC was 30 µM (≈ 33.4 µg/mL) in assay [7]; 30 µM (≈ 33.4 µg/mL) in assay [8]; 30 µM (≈ 33.4 µg/mL) in [9]; 30 µM (≈ 33.4 µg/mL) in assay [10]; 15 µM (≈ 16.7 µg/mL) in assay [11].
As for `CC[C@H](C)[C@H](NC(=O)[C@H](CC(C)C)NC(=O)[C@@H]1CCCN1C(=O)[C@H](CC(C)C)NC(=O)[C@H](CCCCN)NC(=O)[C@H](CCCCN)NC(=O)[C@H](CC(C)C)NC(=O)[C@H](CC(C)C)NC(=O)[C@H](C)NC(=O)[C@@H](NC(=O)[C@H](Cc1ccccc1)NC(=O)CN)C(C)C)C(=O)N[C@@H](CC(C)C)C(=O)N[C@@H](CCCCN)C(=O)N[C@@H](Cc1cnc[nH]1)C(=O)N[C@@H](CC(C)C)C(=O)N1CCC[C@H]1C(N)=O` [GFVALLKKLPLILKHLP], the MIC in [12] came out at 25 µM (≈ 47.5 µg/mL); in assay [13], 3.12 µM (≈ 5.93 µg/mL); in assay [14] it was 3.12 µM (≈ 5.93 µg/mL); in assay [15], 6.25 µM (≈ 11.9 µg/mL).
For the compound `CC[C@H](C)[C@H](N)C(=O)N[C@@H](Cc1c[nH]c2ccccc12)C(=O)N[C@@H](CCCCN)C(=O)N[C@@H](CCCN=C(N)N)C(=O)N[C@@H](Cc1c[nH]c2ccccc12)C(=O)N[C@@H](Cc1c[nH]c2ccccc12)C(=O)N[C@@H](Cc1c[nH]c2ccccc12)C(=O)N[C@@H](CCCCN)C(=O)N[C@@H](CCCN=C(N)N)C(=O)O` [IWKRWWWKR], the MIC in [16] was at least 88.6 µM; in [17], at least 44.3 µM; in assay [18], at least 44.3 µM; in assay [19], 22.1 µM (≈ 32 µg/mL); in assay [20] it was at least 88.6 µM; in assay [21] it was 88.6 µM (≈ 128 µg/mL). In addition, the MIC in [22] and in assay [23] was at least 88.6 µM each time.
For the compound `CC(C)C[C@H](NC(=O)[C@H](CCCCN)NC(=O)[C@H](CCCN=C(N)N)NC(=O)[C@H](Cc1ccccc1)NC(=O)[C@H](Cc1ccccc1)NC(=O)[C@H](CCCCN)NC(=O)[C@H](CCCN=C(N)N)NC(=O)[C@H](CC(C)C)NC(=O)[C@H](CC(C)C)NC(=O)[C@@H](N)CCCN=C(N)N)C(=O)N[C@@H](CCCCN)C(=O)N[C@@H](CCCCN)C(=O)N[C@@H](CO)C(=O)N[C@H](C(=O)O)C(C)C` [RLLRKFFRKLKKSV], the MIC in [24] worked out at 17.6 µM (≈ 32 µg/mL); in assay [25], 8.79 µM (≈ 16 µg/mL); in assay [26] it was 8.79 µM (≈ 16 µg/mL); in assay [27] it was 4.4 µM (≈ 8 µg/mL); in assay [28] it was 17.6 µM (≈ 32 µg/mL); in assay [29], 35.2 µM (≈ 64 µg/mL). Also, the MIC in [30] came out at 17.6 µM (≈ 32 µg/mL); in assay [31] it was 17.6 µM (≈ 32 µg/mL); in assay [21], 35.2 µM (≈ 64 µg/mL); in assay [32], 17.6 µM (≈ 32 µg/mL); in [33], 35.2 µM (≈ 64 µg/mL); in assay [34], 17.6 µM (≈ 32 µg/mL).
Turning to `CC[C@H](C)[C@H](NC(=O)[C@H](CC(C)C)NC(=O)[C@H](CO)NC(=O)[C@H](CC(C)C)NC(=O)[C@H](CC(C)C)NC(=O)[C@@H](N)CO)C(=O)N[C@@H](CCCN=C(N)N)C(=O)N[C@@H](CC(C)C)C(=O)N[C@@H](CC(C)C)C(=O)N[C@H](C(=O)N[C@H](C(N)=O)[C@@H](C)O)[C@@H](C)CC` [SLLSLIRLLIT], the MIC in assay [35] was 12.5 µM (≈ 15.5 µg/mL); in assay [25] it was 1.6 µM (≈ 1.98 µg/mL); in [36] it was 12.5 µM (≈ 15.5 µg/mL); in [37], at least 50 µM; in assay [38], 12.5 µM (≈ 15.5 µg/mL).
For the compound `CC[C@H](C)[C@H](NC(=O)[C@H](Cc1c[nH]c2ccccc12)NC(=O)[C@H](CCCCN)NC(=O)[C@H](CCCCN)NC(=O)[C@@H](NC(=O)[C@H](CCCN=C(N)N)NC(=O)[C@H](CCCN=C(N)N)NC(=O)[C@@H](NC(=O)[C@@H](N)Cc1c[nH]c2ccccc12)[C@@H](C)CC)[C@@H](C)CC)C(=O)N[C@@H](CCCN=C(N)N)C(=O)N[C@@H](CCCN=C(N)N)C(=O)N[C@H](C(=O)N[C@@H](Cc1cnc[nH]1)C(=O)N[C@@H](CCCCN)C(=O)O)C(C)C` [WIRRIKKWIRRVHK], the MIC in assay [39] is 8 µM (≈ 15.8 µg/mL); in assay [40] it was 2 µM (≈ 3.95 µg/mL); in assay [25] it was 8 µM (≈ 15.8 µg/mL); in assay [41], at least 32 µM; in assay [42], 16 µM (≈ 31.6 µg/mL); in [43] it was 16 µM (≈ 31.6 µg/mL). The MIC was determined as 16 µM (≈ 31.6 µg/mL) in [44]; 4 µM (≈ 7.9 µg/mL) in assay [45]; 8 µM (≈ 15.8 µg/mL) in assay [46]; 4 µM (≈ 7.9 µg/mL) in assay [47]; 4 µM (≈ 7.9 µg/mL) in assay [48]; 2 µM (≈ 3.95 µg/mL) in [49]. Further, the figures for the MIC in assay [50], in assay [51] and in assay [52] were 16 µM (≈ 31.6 µg/mL), 4 µM (≈ 7.9 µg/mL) and 8 µM (≈ 15.8 µg/mL), respectively.
